# “And” between values parts separate entries of the source, which are not always exact repeats. Identical values can stand only once. “Also recorded” adds a separate entry of the source.
# What was measured:
# [1] = Selumetinib and N-desmethyl selumetinib plasma levels (phase I pharmacokinetics); format: in vivo; details: for Selumetinib Concentration, 2 Hours Post-Dose / Selumetinib Concentration, 6 Hours Post-Dose / Selumetinib Concentration, Day 1 Pre-Dose: plasma, individual patients; for Selumetinib Concentration, 2 Hours Post-Dose / Selumetinib Concentration, 6 Hours Post-Dose: cycle 1 day 1
# Protocol: Pharmacokinetic studies will be performed in phase I only . […]
# compartmental analysis will estimate C max, AUC0-24 , clearance and t1/2 from per ipheral blood measurements of both AZD 6244 and its metabolites pr e- dose, and at 2 and 6 hours post dose on day 1 and pre- dos e day 15. Labor atory bioanalysis will be performed by Quotient […]
# • Samples to be collected Cycle 1 Day 1 Pre -treatment, 2 hours and 6 hours post dose (aft er f irst set of tablets) pre- dose Cycle 1 Day 15.
# • 5mls of venous blood should be collected into a K2- ED TA BD vacutainer • Samples should be inverted several times to ensure adequate mix ing. […]
# • 2x 500µ l of plasma should be aliquoted to polypropylene eppendorf tubes.
# • Tubes should be individually labeled with the patient’s study number and sample time- point.
# • Samples should be stored at - 200C.
# • 1 x sample to be transferred on dry ice to Quotient Bioresearch for bioanalysis (all four sample time- points day 1 pre- d ose, and at 2 and 6 hours post d ose and pre- dose day 1 5 can be shipped together – please refer to the Laboratory Manual for c ourier details).
# • 1 x sample to be stored at the study centre as back-up.
# Ang-1 = assay: Serum angiogenic marker ELISA; format: in vivo, human; details: end of cycles 1, 2, 4 and 6 vs pre-dose cycle 1 day 1; any dose
# Protocol: (§1) Pharmacodynamic measures were assessed by percentage changes in serum angiogenic markers and correlated with tumour response. The baseline used was that measured at cycle visit 1 day 1 pre-selumetinib treatment. Analysis of longitudinal data was performed using a mixed effects repeated measured regression, with a trend line and 90% CI derived using the fixed effect estimates from the model.
# (§2) Circulating angiogenic biomarkers on cycle 1 day 1 pre-treatment, cycle 2 day 1, cycle 3 day 1, cycle 5 day 1 and end of cycle 6 (all ±1 day except cycle 1 day 1 pre-treatment).
# (§3) HIV-1 viral load and CD4 counts were measured as per standard of care at hospital sites. To measure the concentration of angiogenesis markers, 8.5 ml blood was collected in BD vacutainer no-additive serum tubes. Samples were kept at room temperature for 30 minutes before centrifugation at 2000 g for 20 minutes at room temperature. Serum samples were then stored at -80 °C prior to analysis. Serum Ang-1, Ang-2 and TIE levels were assessed using commercial ELISAs (Thermo Fisher Scientifc hAng-1 (EHANGPT1), R&D DuoSet Ang-2 (DY623), eBioscience hTIE2 (BMS2042)), according to manufacturer instructions at laboratories at the University of Sheffield.
# Ang-2 = assay: Serum angiogenic marker ELISA; format: in vivo, human
# Protocol: as §1, §2, §3
# Tie-2 = assay: Serum angiogenic marker ELISA; format: in vivo, human; details: end of cycles 1, 2, 4 and 6 vs pre-dose cycle 1 day 1; any dose
# Protocol: as §1, §2, §3
# [2] = tested on: HIV-associated Kaposi sarcoma; assay: Objective response by ACTG criteria; format: in vivo, human; details: for objective response (OR) rate: 90% CI
# Protocol: For registered patients, pre-treatment evaluation included: physical examination, ophthalmologic exam, electrocardiogram (ECG), echocardiogram or multi-gated acquisition (MUGA) scan, chest x-ray and CT thorax, abdomen, and pelvis. Adverse events according to CTCAE version 4.0 [18] were recorded every three weeks. The burden of cutaneous disease was estimated by summed tumour area sizes (mm^2) from photographic image measurements and evaluated at baseline using ACTG criteria (Supplementary Appendix 3), with subsequent formal response assessments including clinical photographs taken every 6 weeks for 12 months or until disease progression. For patients with visceral or extensive disease, repeat CT scans at these time points were also performed.
# OR rate was reported as the proportion of patients who achieved OR out of the total per-protocol population, with 90% confidence intervals (CI). Sensitivity analyses were also performed to compare this OR rate with ones that used the MTD population and the any-dose population as the denominator. The OR rate was also calculated for those who received at least six cycles of selumetinib.
# The absence of any detectable residual disease, including tumour-associated oedema, persisting for at least 4 weeks.
# A 50% or greater decrease in the number and/or size of previously existing lesions (skin, oral, measurable or evaluable visceral disease) lasting for at least 4 weeks without the appearance of new lesions or the appearance or worsening of tumour-associated oedema or effusions, […] of 25% or more in the product of bi-dimensional diameters of any indicator lesion.
# Any response not meeting the criteria for progression or PR.
# [3] = tested on: non-small cell lung cancer; set-up: method as in SCART protocol 7.3.1; details: combination arm; ref SCART protocol 7.3.1; cited from earlier work
# Japanese patients, NSCLC = tested on: Japanese patients, NSCLC; set-up: method as in study D1532C00067; details: selumetinib + Docetaxel, ref study D1532C00067; cited from earlier work
# [4] = tested on: HIV-associated Kaposi sarcoma; assay: Progression-free survival (Kaplan-Meier); format: in vivo, human
# CD4 cell counts = assay: HIV control: CD4 cell counts; format: in vivo, human
# Protocol: (§4) HIV control was assessed by plotting longitudinal HIV-1 viral load and CD4 cell counts over time for the per-protocol population. Due to missing data at the pre-treatment cycle 1 […] visit, the CD4 cell counts from the screening visit were used as the baseline comparator. Paired t-tests were done to test the difference between CD4 cell counts at screening, cycle 3 day 22 and cycle 6 day 22. Due to multiple testing, a Bonferroni correction was applied to the significance threshold, calculated as 0.05 ÷ 2 = 0.025.
# as §3
# HIV-1 = assay: HIV control: HIV-1 viral load; format: in vivo, human; details: during the trial, patients receiving selumetinib + ART
# Protocol: as §4, §3
# [5] = any dose/safety population, 16 patients
# [6] = per protocol population, 12 patients
structure (smiles),measurement,setting,value
"Cn1cnc2c(F)c(Nc3ccc(Br)cc3Cl)c(C(=O)NOCCO)cc21 [selumetinib, 6-(4-Bromo-2-chloro-phenylamino)-7-fluro-3-methyl-3 H-benzoimidazole-5-carboxylic acid (2-hydroxy-ethoxy)-amide hydrogen sulphate]",plasma levels compared with other selumetinib studies,"[1]; phase I, comparison with refs 19-22",consistent with published reports from other selumetinib studies
same,"Selumetinib Concentration, 2 Hours Post-Dose",[1]; starting dose 50 mg bd,201 ng/mL and 304 ng/mL and 238 ng/mL and 274 ng/mL
same,"Selumetinib Concentration, 6 Hours Post-Dose",[1]; starting dose 50 mg bd,26.5 ng/mL and 48.5 ng/mL and 47.9 ng/mL
same,"Selumetinib Concentration, 2 Hours Post-Dose",[1]; starting dose 75 mg bd,1280 ng/mL and 1250 ng/mL and 361 ng/mL and 247 ng/mL and 504 ng/mL and 1040 ng/mL
same,"Selumetinib Concentration, 6 Hours Post-Dose",[1]; starting dose 75 mg bd,249 ng/mL and 180 ng/mL and 284 ng/mL and 452 ng/mL and 66.1 ng/mL
same,"Selumetinib Concentration, Day 1 Pre-Dose",[1]; starting dose 50 mg bd,BLQ
same,"Selumetinib Concentration, Day 1 Pre-Dose",[1]; starting dose 75 mg bd,BLQ
same,change in circulating level of Ang-1,Ang-1,no significant changes
same,change in circulating level of Ang-2,"Ang-2; end of cycles 1, 2, 4 and 6 vs pre-dose cycle 1 day 1, any dose",no significant changes
same,serum levels of Ang-2 on treatment compared to baseline (trend),Ang-2; on selumetinib treatment,tended to be lower
same,change in circulating level of Tie-2,Tie-2,no significant changes; also recorded: no changes were observed
same,objective response (OR) rate,[2]; MTD population (sensitivity analysis),6.7%
same,objective response (OR) rate,[2]; any-dose/safety population (sensitivity analysis),6.3%
same,"clinical benefit rate (CR, PR and SD)","[2]; any-dose/safety population, 16 patients",75%
same,objective response (OR) rate,"[2]; per-protocol population, 12 patients, 75 mg bd + ART",8.3%
same,response duration,[2]; the only patient with PR (deepened to CR after discontinuing at 3 cycles),201 days
same,"febrile neutropenia CTCAE grade 3, patients",[3],6/44
same,"febrile neutropenia CTCAE grade 4, patients",[3],2/44
same,"febrile neutropenia, patients treated","Japanese patients, NSCLC",3 of 8
same,3-month PFS (90% CI),"[4]; MTD population, 15 patients","66%(42%,82%)"
same,6-month PFS (90% CI),"[4]; MTD population, 15 patients","44% (22%, 64%)"
same,Median PFS in months (90% CI),"[4]; MTD population, 15 patients","5.53 (2.53, 12.80) months"
same,3-month PFS (90% CI),[4]; [5],"62%(39%,78%)"
same,6-month PFS (90% CI),[4]; [5],"41% (21%, 61%)"
same,Median PFS in months (90% CI),[4]; [5],"4.14 (2.53, 12.80) months"
same,3-month PFS (90% CI),[4]; [6],"57%(31%,76%)"
same,Median PFS in months (90% CI),[4]; [6],"3.42 (1.74, -^$) months"
same,mean increase in CD4 cell counts,"CD4 cell counts; cycle 3 day 22 vs screening, per-protocol population, 95% CI: 41.91, 280.63, p = 0.013",161.27 cells/mm^3
same,increase in CD4 cell counts,"CD4 cell counts; cycle 6 day 22 vs pre-treatment, 95% CI: 31.87, 273.47, p = 0.023",152.67 cells/mm^3
same,HIV-1 viral load,HIV-1,remained undetectable
